# Patent US20210246502A1, “RAPID IDENTIFICATION OF STRAINS FROM SEQUENCE DATA” (priority 2018, published 2021)
# Columns and labels:
# N. gonorrhoeae [1] = type: cell-based, Neisseria gonorrhoeae; details: out of all 1102 gonococcal isolates; ancestral reconstruction only for cefixime
# Excerpt: (§1) For all antibiotics, RASE associates individual isolates with a resistance category, susceptible or non-susceptible. First, MIC values are mined using regular expressions from the available textual antibiograms, i.e., strings describing an interval of possible MIC values. Second, the acquired intervals are compared to the antibiotic-specific breakpoints (FIG. 6). If a given breakpoint is above or below the interval, susceptibility or non-susceptibility is reported, respectively. However, no category can be assigned at this step if the breakpoint lies within the extracted interval, an antibiogram is entirely missing, or an antibiogram is present, but parsing failed. Third, missing categories are inferred using ancestral state reconstruction on the associated phylogenetic tree while maximizing parsimony (i.e., minimizing the number of nodes switching its resistance category; FIG. 7).
# (§2) The pneumococcal RASE database was constructed with the standard EUCAST breakpoints^16 ([g/ml]): benzylpenicillin (PEN): 0.06, ceftriaxone (CRO): 0.25, trimethoprim-sulfamethoxazole (SXT): 1.00, erythromycin (ERY): 0.25, and tetracycline (TET): 1.00. The gonococcal RASE database was constructed with the CDC GISP breakpoints ([g/ml]): azithromycin (AZM): 2.0, cefixime (CFM): 0.25, ciprofloxacin (CIP): 1.0, and ceftriaxone (CRO): 0.125. While the Inventors have used the above values in the present work, others may be readily defined and the database rapidly updated.
# (§3) The Inventors assigned each pneumococcal and gonococcal isolate to an antibiotic-specific resistance category using the EUCAST breakpoints and CDC GISP breakpoints, respectively. Since MIC data were not always available, the Inventors estimated the likely resistance phenotype of unannotated isolates using ancestral state reconstruction.
# S. pneumoniae [2] = assay: Resistance categories of pneumococcal RASE database isolates (MIC vs EUCAST breakpoints, ancestral state reconstruction); type: cell-based, Streptococcus pneumoniae; details: for resistance phenotype of best match database isolate: best match in the Massachusetts RASE database for SP03 and SP06; for number of isolates susceptible: out of all 616 pneumococcal isolates, includes categories inferred by ancestral state reconstruction
# Excerpt: as §1, with “(see below).” for “(FIG. 6).”, “category).” for “category; FIG. 7).”
# The RASE database is constructed with the standard EUCAST breakpoints ([g/ml]): Benzylpenicillin (PEN): 0.06, Ceftriaxone (CRO): 0.25, […]: 1.00, Erythromycin (ERY): 0.25, and Tetracycline (TET): 1.00. The breakpoints are set conservatively, i.e., non-susceptibility is preferred over susceptibility for intermediate values. While the Inventors have used the above values in the present work, others may be readily defined and the database rapidly updated.
# as §1, §2, §3
# N. gonorrhoeae [3] = assay: MIC of gonococcal isolates against CDC GISP breakpoint; type: cell-based, Neisseria gonorrhoeae; parameters: unit not given beside the values
# Excerpt: as §2, with “updated. This is especially useful in the case where breakpoints may vary depending on the site of infection (as is the case with pneumococcal meningitis and otitis media, where lower MICs are considered to be resistant).” for “updated.”
# S. pneumoniae [4] = assay: Antibiograms of additional pneumococcal isolates not in the RASE database, EUCAST breakpoints; type: cell-based, Streptococcus pneumoniae; details: 23F isolates SP03 and SP06, related to Tennessee 23F-4 clone
# Excerpt: The Inventors examined four additional pneumococcal isolates (FIG. 14b) for which the serotype and limited antibiogram and lineage data were known. The Inventors compared three characteristics of the sample to assess the Inventors' performance: the serotype, the MLST sequence type (ST) and the antibiograms (benzylpenicillin, ceftriaxone, trimethoprim-sulfamethoxazole, erythromycin, and tetracycline resistance according to EUCAST breakpoints).
# S. pneumoniae [5] = assay: Resistance of streptococcus in metagenomic sputum samples by agar diffusion, EUCAST methodology and breakpoints; type: cell-based, Streptococcus pneumoniae; details: metagenomic sputum sample SP10 (Swedish 15A clone, ST63)
# Method: Resistance of streptococcus in the metagenomic samples (SP07-SP12) was determined by agar diffusion using the EUCAST methodology and breakpoints. First, the inoculated agar plates were incubated at 37° C. overnight and then examined for growth with the potential for re-incubation up to 48 hours. Then, the samples were screened to oxacillin: if the zone diameter r was >20 mm, the isolate was considered sensitive to benzylpenicillin, otherwise a full MIC measurement to benzylpenicillin was done.
Compound,number of isolates associated with resistance (N. gonorrhoeae [1]),number of isolates susceptible (S. pneumoniae [2]),other results
CC[C@H]1OC(=O)[C@H](C)[C@@H](O[C@H]2C[C@@](C)(OC)[C@@H](O)[C@H](C)O2)[C@H](C)[C@@H](O[C@@H]2O[C@H](C)C[C@H](N(C)C)[C@H]2O)[C@](C)(O)C[C@@H](C)CN(C)[C@H](C)[C@@H](O)[C@]1(C)O [azithromycin],232,–,–
CC1(C)S[C@@H]2[C@H](NC(=O)Cc3ccccc3)C(=O)N2[C@H]1C(=O)O [benzylpenicillin],–,341,resistance phenotype of best match database isolate (S. pneumoniae [2]): resistant
C=CC1=C(C(=O)O)N2C(=O)[C@@H](NC(=O)/C(=N\OCC(=O)O)c3csc(N)n3)[C@H]2SC1 [cefixime],266,–,–
CO/N=C(\C(=O)N[C@@H]1C(=O)N2C(C(=O)O)=C(CSc3nc(=O)c(=O)[nH]n3C)CS[C@H]12)c1csc(N)n1 [ceftriaxone],69,485,"MIC (N. gonorrhoeae [3]; best match of GC05 in the RASE database): 0.062; MIC (N. gonorrhoeae [3]; multi-drug resistant isolate GC05, equal to CDC GISP breakpoint): 0.125"
O=C(O)c1cn(C2CC2)c2cc(N3CCNCC3)c(F)cc2c1=O [ciprofloxacin],594,–,–
CC[C@H]1OC(=O)[C@H](C)[C@@H](O[C@H]2C[C@@](C)(OC)[C@@H](O)[C@H](C)O2)[C@H](C)[C@@H](O[C@@H]2O[C@H](C)C[C@H](N(C)C)[C@H]2O)[C@](C)(O)C[C@@H](C)C(=O)[C@H](C)[C@@H](O)[C@]1(C)O [erythromycin],–,484,resistance phenotype of samples (S. pneumoniae [4]): resistant; resistance phenotype of best match database isolate (S. pneumoniae [2]): susceptible; resistance phenotype of sample (S. pneumoniae [5]): resistant
Cc1onc(-c2ccccc2)c1C(=O)N[C@@H]1C(=O)N2[C@@H]1SC(C)(C)[C@@H]2C(=O)O [oxacillin],–,–,resistance phenotype of sample (S. pneumoniae [5]): resistant
CN(C)[C@@H]1C(O)=C(C(N)=O)C(=O)[C@@]2(O)C(O)=C3C(=O)c4c(O)cccc4[C@@](C)(O)[C@H]3C[C@@H]12 [tetracycline],–,551,–
"COc1cc(Cc2cnc(N)nc2N)cc(OC)c1OC [trimethoprim, Trimethoprim]",–,480,–
trimethoprim-sulfamethoxazole,–,480,–
